# Earlier results, collected in patent US20160326157A1, “MONOBACTAMS AND METHODS OF THEIR SYNTHESIS AND USE” (PRESIDENT AND FELLOWS OF HARVARD COLLEGE, priority 2014, published 2016).
# What was measured:
# [1] = tested on: Gram-positive or anaerobic bacteria
# [2] = in vivo
smiles,measurement,setting,value
C[C@H]1[C@H](NC(=O)/C(=N\OC(C)(C)C(=O)O)c2csc(N)n2)C(=O)N1S(=O)(=O)O [Aztreonam],concentration inhibiting most Enterobacteriaceae,Enterobacteriaceae,less than 0.5 g/mL
same,activity against Gram-positive or anaerobic bacteria,[1],inactive
same,absorption from the gastrointestinal tract,[2],not absorbed
same,route of excretion,[2],renally excreted
